Structures can show the parent of a compound that is named as a salt.
Columns and labels:
[1] = format: physicochemical
Experimental: The sodium salt of 6-fluoro-spiro-[chroman-4,4'-imidazolidine]-2',5'-dione is prepared by dissolving said compound in water containing an equivalent amount in moles of sodium hydroxide and then freeze-drying the mixture.

[2] = tested on: lenticular opacities in galactosemic rats; assay: severity of lenticular opacities in galactosemic rats (percentage of lens area involved); format: in vivo, rat; details: for lenses with area of involvement never less than 10%: 17 days, control 75%
Experimental: (§1) The activity of the compounds of the present invention, as agents for the control of chronic diabetic complications, is determined by their ability to successfully pass one or more of the following standard biological and/or pharmacological tests, viz., (1) measuring their ability to inhibit the enzyme activity of isolated aldose reductase; (2) measuring their ability to reduce or inhibit sorbitol accumulation in the sciatic nerve of acutely sterptozotocinized (i.e., diabetic) rats; (3) measuring their ability to reverse already-elevated sorbitol levels in the sciatic nerve and lens of chronic streptozotocin-induced diabetic rats; (4) measuring their ability to prevent or inhibit galactitol formation in the lens of acutely galactosemic rats, and (5) measuring their ability to delay cataract formation and reduce the severity of lens opacities in chronic galactosemic rats.
(§2) To determine the effect of 6-fluoro-spiro-[chroman-4,4'-imidazolidine]-2',5'-dione on cataract formation in galactosemis, rats were fed a 30% galactose diet with and without this compound for a period of 29 days and eye examinations also were routinely conducted approximately twice a week throughout this period. The experimental animals received the test compound mixed in the food at concentration levels necessary to afford approximate doses of 10 mg./kg. and 20 mg./kg., respectively. Control animals received the galactose diet alone (i.e., without the compound). […] The corresponding value obtained in rats receiving the test compound at 20 mg./kg. was 0%.
The effectiveness of 6-fluoro-spiro-[chroman-4,4'-imidazolidine]-2',5'-dione in delaying cataract development in rats is further highlighted by the test producedure of Example XLIV by giving careul consideration to the severity of the lenticular opacities involved. In this study, the percentage of lens areas involved were monitored throughout the 29-day period and the results obtained served as an index of severity. […]

aldose reductase = target: T1, aldose reductase (Bos taurus, UniProt P16116); assay: inhibition of aldose reductase enzyme activity (procedure of S. Hayman et al., modified by K. Sestanj et al.); format: biochemical, calf
T1 construct: partially purified aldose reductose enzyme obtained from calf lens; from tissue; host or cells: calf lens
Experimental: as §1
Hayman et al., as described in the Journal of Biological Chemistry, Vol. 240, p. […] In every case, the substrate employed ws partially purified aldose reductose enzyme obtained from calf lens.

[3] = tested on: cataract formation in galactosemic rats; assay: delay of cataract formation in galactosemic rats (incidence of lenticular opacities); format: in vivo, rat; details: 30% galactose diet
Experimental: as §1, §2

[4] = tested on: sorbitol levels in the sciatic nerve and lens of diabetic subjects; assay: lowering of sorbitol levels in sciatic nerve (peripheral nerves) and lens of diabetic subjects (summary statement); format: in vivo; details: qualitative statement
[5] = tested on: sorbitol levels in diabetic rats; assay: control of sorbitol formation in diabetic rats, oral route (summary statement); format: in vivo, rat; details: 0.75 mg./kg. to 20 mg./kg.
From the text: As previously indicated, the spiro-hydantoin compounds of this invention are all readily adapted to therapeutic use as aldose reductase inhibitors for the control of chronic diabetic complications, in view of their ability to reduce lens sorbitol levels in diabetic subjects to a staistically significant degree. […] The other compounds of this invention also cause similar results. Furthermore, all the herein described compounds of this invention can be administered by either the oral or parenteral routes of administration, for the present purposes at hand, without causing any significant untoward pharmacological side reactions to occur in the subject to whom they are so administered. In general, these compounds are ordinarily administered in dosages ranging from about 0.1 mg. to about 10 mg. per kg. of body weight per day, although variations will necessarily occur depending upon the weight and condition of the subject being treated and the particular route of administration chosen.

[6] = tested on: sorbitol accumulation in the sciatic nerve of streptozotocinized (i.e., diabetic) rats; assay: inhibition of sorbitol accumulation in the sciatic nerve of acutely streptozotocinized (diabetic) rats; format: in vivo, rat; details: measured at 27 h, vs untreated
Experimental: as §1
The following spiro-hydantoin compounds of Preparation C and Examples I-V, VII-IX, XI-XVII, XIX-XXV, XXVII and XXX-XXXIII, respectively, were tested for their ability to reduce or inhibit sorbitol accumulation in the sciatic nerve of streptozotocinized (i.e., diabetic) rats by the procedure essentially described in U.S. Pat. No. 3,821,383. In the present study, the amount of sorbitol accumulation in the sciatic nerves was measured 27 hours after induction of diabetes. The compounds were administered orally at the dose levels indicated at 4, 8 nd 24 hours following the administration of streptozotocin. The results obtained in this manner are presented below in terms of percent inhibition (%) afforded by the test compound as compared to the case where no compound was administered (i.e., the untreated animal where sorbitol levels normally rise from approximately […]. tissue to as high as […]. tissue in the 27-hour test period): […]

[7] = tested on: sorbitol levels in the sciatic nerve and the lens of streptozotocin-induced diabetic rats; assay: reversal of already-elevated sorbitol levels in sciatic nerve and lens of chronic streptozotocin-induced diabetic rats; format: in vivo, rat; details: 2.5 mg./kg. orally twice a day, seven days; two weeks after streptozotocin 65 mg./kg. i.v.; three hours post dose
Experimental: as §1
6-Fluoro-spiro-[chroman-4,4'-imidazolidine]-2',5'-dione (the product of Example XXII) was tested for its ability to reverse already-elevated sorbital levels in streptozotocininduced diabetic rats of two weeks duration (i.e., chronic) by administering said compound orally to the animals for a period of seven days. In this study, the sorbital determinations were carried out in both the sciatic nerve and the lens. Streptozotocin was first administered to the animals at 65 mg./kg., via the intravenous route. […]

[8] = tested on: galactitol levels in the lens of galactosemic subjects; assay: lowering of galactitol levels in the lens of galactosemic subjects (summary statement); format: in vivo; details: qualitative statement
[9] = tested on: galactitol formation in acutely galactosemic rats (lens); assay: inhibition of galactitol formation in the lens of acutely galactosemic rats; format: in vivo, rat; details: 30% galactose diet, seven days
Experimental: as §1
The ability of 6-fluoro-spiro-[chroman-4,4'-imidazolidine]-2',5'-dione to prevent or inhibit galactitol formation in acutely galactosemic rats was determined by administering said compound to the animals, via their feed, for a period of seven days. In this study, normal male rats were first divided into groups of six animals each and then fed a 30% galactose diet together with the compound to be administered at three different dosage levels. […]

For `O=C1NC(=O)C2(CCOc3ccc(F)cc32)N1` (stereo not shown) [sodium salt of 6-fluoro-spiro-[chroman-4,4'-imidazolidine]-2',5'-dione], the solubility in water [1] was “freely soluble in water”.

With `O=C1NC(=O)C2(CCOc3ccc(F)cc32)N1` (stereo not shown) [Ex. XXII, 6-fluoro-spiro[chroman-4,4'-imidazolidine]-2',5'-dione] the “lenses with area of involvement never less than 10%” value ([2]; 10 mg./kg.) was 6%, the “lenses with area of involvement never less than 10%” value ([2]; 20 mg./kg.) was 0% and the “severity of lenticular opacities versus control group” value ([2]; treated groups, including 29-day mark) was “always less than that found in the control group”. The inhibition at 100 µM (aldose reductase; 10^-4 M, calf lens enzyme, read-out: Percent inhibition of aldose reductase enzyme activity) was 84%, the inhibition at 10 µM (aldose reductase; 10^-5 M, calf lens enzyme, read-out: Percent inhibition of aldose reductase enzyme activity) was 58% and the inhibition at 1 µM (aldose reductase; 10^-6 M, calf lens enzyme, read-out: Percent inhibition of aldose reductase enzyme activity) was 52%. For the same molecule, the inhibition at 0.1 µM (aldose reductase; 10^-7 M, calf lens enzyme, read-out: Percent inhibition of aldose reductase enzyme activity) was 3%, the “aldose reductase inhibitory activity (in words)” value (aldose reductase; qualitative statement) was “highly potent” and the “delay in cataract formation” value ([3]; 20 mg./kg., 29-day mark) was “an impressive delay in cataract formation was still observed at the 29-day mark”. For the same molecule, the “eyes with lenticular opacities” value ([3]; 22-day mark, 10 mg./kg. in food) was “greater than 90%”, the “eyes with lenticular opacities” value ([3]; 29-day mark, 20 mg./kg. in food) was 37% and the “eyes with lenticular opacities” value ([3]; 17 days, 10 mg./kg. in food, control 100%) was 6%. For the same molecule, the “eyes with lenticular opacities” value ([3]; 17 days, 20 mg./kg. in food, control 100%) was 0%, the “lenticular opacities in the eyes” value ([3]; after 8-14 days, either 10 mg./kg. or 20 mg./kg. in food, control 90% of eyes) was “no opacities being present” and the “delay in cataract formation” value ([3]; all treated groups (10 and 20 mg./kg.)) was “delay in cataract formation continued in all the treated groups until the 22-day mark”. For the same molecule, the “lowering of sorbitol levels in sciatic nerve (peripheral nerves) and lens (in words)” value [4] was “extremely effective”, the “control (inhibition) of the formation of sorbitol levels (in words)” value [5] was “to a significantly high degree” and the “Percent inhibition of sorbitol accumulation in the sciatic nerve” value ([6]; 0.75 mg./kg. orally at 4, 8 and 24 h after streptozotocin) was 45%. The “Percent inhibition of sorbitol accumulation in the sciatic nerve” value ([6]; 1.5 mg./kg. orally at 4, 8 and 24 h after streptozotocin) was 72%, the “reduction in sorbitol levels in the lens” value [7] was 71% and the “reduction in sorbitol levels in the sciatic nerve” value [7] was 68%. For the same molecule, the “lowering of galactitol levels in the lens (in words)” value [8] was “extremely effective”, the “inhibition of galactitol values in the lens” value ([9]; 10 mg./kg. in feed) was 40% and the “inhibition of galactitol values in the lens” value ([9]; 20 mg./kg. in feed) was 72%.
